Source: patent publication US20200093782A1, “ARIANTS OF 2-[6-(4-CHLOROPHENOXY)HEXYL]-OXIRANE-2-CARBOXYLIC ACID FOR USE IN THE TREATMENT, PREVENTION AND/OR AMELIORATION OF BRAIN DISEASES” (Meta-IQ ApS, priority 2016, published 2020)

Experiments:
Male Wistar rats = assay: Chronic mild stress (CMS) induced depression, sucrose consumption test; format: in vivo, rat
From the text: Treatment of stress-induced depression by blocking carnitine palmitoyl transferase 1 Rats were initially exposed to four weeks of CMS and subsequently exposed to stressors for another five weeks combined with drug or vehicle treatment (FIG. 7). The intake of sucrose solution was used in order to determine the depression status among rats. […] Moreover, statistical significant difference was found between Escitalopram and Etomoxir treatment in week two, four and five.
The percentage of animals responding over time receiving Etomoxir, Escitalopram or vehicle was compared (FIG. 8). The criterion for responders was set at 20% increase in intake of sucrose at the respective weeks compared to baseline prior to onset of treatment. The percentage of responding rats to Etomoxir treatment was higher than Escitalopram treatment.
Male Wistar rats were used for the CMS model. The weight of the rats was approximately 200 g when the experiment was initiated. The rats were housed singly with 12 h light/dark cycle and food and water was available ad libitum except when these parameters were applied as stress inducers. The following paragraphs concerning the CMS model was performed according to the protocol by Wiborg et al.
In order to quantify the hedonic state of the animals a sucrose consumption test was performed. The animals were trained in five weeks in order to consume a palatable sucrose solution. […]

C57B16 mice = assay: Mouse EAE model (MOG 35-55), therapeutic treatment; format: in vivo; conditions: 1 mg/kg/day s.c. in olive oil for 2 weeks, start ten days after MOG injection
From the text: Six week old C57B16 mice were bred and kept at conventional animal facilities at the University of Copenhagen. Female Lewis rats, 2 months old were used for this study.
All animals were weighed and scored clinically on a daily basis. During progression of EAE, leading to motor disabilities, animals had water in a Petri dish and soaked chow for easy intake to ensure sufficient intake of liquid and nutrients. Healthy animals were used as comparison and control of the EAE exposed animals. […]
The animals were monitored daily, weighed and clinically scored according to the following scale (Imrich and Harzer 2001): 0, no clinical signs of EAE; 1, loss of tail tonus; 2, mild paresis in one or both hindlimbs; 3, moderate paresis in one or both hindlimbs; 4, severe paresis or paralysis in one or both hindlimbs; 5, paralysis in one or both hindlimbs and visible paresis in one or both forelimbs, incontinence; 6, moribund. […]
CPT1 Blockers Have a Therapeutic Effect in Rodent Models with EAE. […] The animals were daily tested for body weight and disease score (Disease was scored as follows; 0=no disease, 1=limp tail, 2=hind-limb paresis, 3=hind-limb paralysis, 4=hind/forelimb paralysis, and 5=death). […]

rats [1] = assay: Long term memory test (light/dark shock compartment) with or without MK801; format: in vivo, rat; conditions: MK801, sub cutaneous injection 1 hour before the test
Experimental: Rats are put in a cage where in the dark part (where they like to be) the bedding gives a shock. They are put in the light part during training. The next day the rats are put in the light part again, when long term memory is there, they will not like to go in the dark part (shock compartment).
MK801, blocks the generation of memory.
(§1) Etomoxir was given by sub cutaneous injection 1 hour before the test.

rats [2] = assay: Sucrose consumption in rats after drinking the drug (test of crossing the BBB); format: in vivo, rat
Experimental: First rats are given R(+)-etomoxir ethyl ester formulated water (4 mg/day) every day for 20 days. Then once a week the sucrose consumption was measured. This study is designed to test is R(+)-etomoxir ethyl ester reaches the brain and therefore is it can cross the blood-brain-barrier (BBB).
Blocking CPT-1 in hypothalamus (applied in the drinking water) […] food intake.

Lewis rats = assay: Rat EAE model (MBP in CFA); format: in vivo
rats [3] = assay: Short term memory test (3 corridors, alternation ratio) with or without MK801; format: in vivo, rat; conditions: MK801, sub cutaneous injection 1 hour before the test
Experimental: Rats are put in a compartment with 3 corridors. While looking for food, they will first go in 1 corridor, then when no food is found go in the next and when they have a good short term memory, go in the 3rd after that. (this is measured as alternation ratio) MK801 destroys short term memory. Etomoxir restores short term memory.
as §1

| SMILES | percentage of responding (healthy) rats (Male Wistar rats; 5 weeks of treatment with continued stress, responder = 20% increase in sucrose intake vs baseline) [%] | intake of sucrose solution compared to vehicle group (Male Wistar rats; five weeks of i.p. daily treatment under stress, Etomoxir 4 mg/kg, Escitalopram 5 mg/kg) | symptom-free animals at the end of the study (C57B16 mice) [%] | animals with restored long term memory (rats [1]) [%] | sucrose consumption (rats [2]; 4 mg/day in drinking water, every day for 20 days, measured once a week) | crossing of the blood-brain-barrier (BBB) (rats [2]; oral (drinking water), concluded from increased sucrose consumption) | therapeutic effects when started at day 1 or day 5 (Lewis rats; treatment from day 1 or day 5 after induction, compared with placebo) | disease- and symptom-free rats (Lewis rats; treatment started at day 7 after induction, read at day 11 (end of study)) [%] | short term memory (rats [3]) |
| --- | --- | --- | --- | --- | --- | --- | --- | --- | --- |
| CN(C)CCC[C@@]1(c2ccc(F)cc2)OCc2cc(C#N)ccc21 [Escitalopram] | 57 | no significant difference |  |  |  |  |  |  |  |
| CCOC(=O)[C@@]1(CCCCCCOc2ccc(Cl)cc2)CO1 [R(+)-etomoxir ethyl ester, R(+)-2-[6-(4-chlorophenoxy)hexyl]-oxirane-2-carboxylic acid ethyl ester] |  |  | 52 | 40 | increased sucrose consumption | can cross the blood-brain-barrier (BBB) and reach the brain | significantly better therapeutic effects compared to IFNb | 25 | restores the animal's short term memory |
